{"source": "patent US20040143009A1", "about": "“Amines, uses thereof” (L'OREAL, priority 2002, published 2004)", "key": {"[1]": {"tested_on": "rat-isolated phrenic nerve/diaphragm (striated muscle) preparation", "experiment": "Nerve/muscle (motor plate) junction model, isolated phrenic nerve/diaphragm preparation", "settings": "at 10^-4 M", "protocol": "Compound 1 was tested on a nerve/muscle (motor plate) junction model obtained in a rat-isolated phrenic nerve/diaphragm (striated muscle) preparation (Pollard B. J. et al., Br. J. Anaesth., 1988, 61, 419-424).\n(§1) This test is predictive of an antiwrinkle effect, as was verified by the applicant on diazepam, which is both active in vivo in humans and in this test at 10^−4 M.\nThe phrenic nerve and the diaphragm are carefully isolated and placed in a 50 ml tank filled with survival fluid (Krebs Henseleit fluid) kept at a temperature of 37° C. and oxygenated with an oxygen/CO2 (95/5) mixture.\nVariations in the tension of the diaphragm are recorded with an initial preload of several grams.\nAfter a relaxation period of 30 min, the diaphragm is indirectly stimulated by means of the phrenic nerve.\nOn each preparation, the effect of the test compound was evaluated on contractions induced by indirect stimulation via stimulation on the phrenic nerve (0.1 to 0.5 volts, 0.3 ms, 0.1 Hz). Alverine, known as a muscle-relaxing compound with antiwrinkle effect according to application FR-2 798 590, is used as control."}, "[2]": {"experiment": "Antiwrinkle effect in vivo in humans", "from_the_text": "as §1"}}, "data": [{"smiles": "CN1C(=O)CN=C(c2ccccc2)c2cc(Cl)ccc21", "note": "[diazepam]", "values": [{"measurement": "activity in the nerve/muscle junction test", "setting": "[1]", "result": "active"}, {"measurement": "antiwrinkle activity in vivo in humans", "setting": "[2]", "result": "active"}]}]}
